Measured values: patent US8759481B2, “Peptide vaccines for cancers expressing tumor-associated antigens” (Oncotherapy Science, Inc., priority 2007, dated 2014)
Entries after “also recorded” stand apart in the source; their conditions may differ. Ends that are not written are not given here.

Assays:
Assay in all cases: 51Cr release cytotoxicity assay
Type in all cases: cell-based, human
Caki-1 cancer cell line = conditions: Caki-1 endogenously expressing HIG2 and HLA-A02; listed as HIG2-A02-9-4
Description: (§1) Cytotoxic activity was evaluated by a four-hour ^51Cr release assay. The target cells were pulsed with a 20 micro g/mL concentration of peptide overnight. The target cells were labeled with 100 micro Ci of Na2^51CrO4 at 37 degrees C. for one hour, and then washed three times with RPMI1640. The target cells (1×10^4/100 micro L) and 100 micro L of effector cells at various numbers with a total volume of 200 micro L were placed into a round-bottomed 96-well microtiter plate (Corning), and cultured at 37 degrees C. in a CO2 incubator for four hours. After culturing, 100 micro L of the supernatant was collected from each well, and measured the radioactivity using a gamma counter. Spontaneous release was the radioactivity from the target cells with medium in the absence of effector cells, and maximum release was the radioactivity from the target cells with 1 M HCl.
(§2) The Percentage of specific cytotoxicity was determined by calculating as following formula: % Specific lysis=[(experimental release−spontaneous release)/(maximum release−spontaneous release)]×100. Results Enhanced CDH3, EPHA4, ECT2, HIG2, INHBB, KIF20A, KNTC2, TTK and URLC10 Expression in Cancers
(§3) Furthermore, Cytotoxic activity was examined by cytotoxicity assay according to the protocols set forth in the “Materials and Methods” section above.

A498 cancer cell line = conditions: A498 expressing only HIG2
Description: as §1, §2, §3

[1] = tested on: 293T transfected with HIG2 gene and/or HLA-A02
Text: The cDNA encoding an open reading frame of target genes or HLA-A02 or HLA-A24 was amplified by PCR. The PCR-amplified product was cloned into pcDNA3.1 myc-His vector (Invitrogen). The plasmids were transfected into the target cells, HLA-A02 and HLA-A24-null normal human cell line COS7 or 293T using lipofectamine (Invitrogen) according to the manufacturer's recommended procedures. Alternatively, the plasmid contained the target genes were transfected into A24-LCL by electroporation using GenePulserII (Biorad). Briefly, 2.5×10^6 A24-LCL cells were pulsed with 10 mcg prasmid at 140V and 1000 micro F. After 2 days from transfection, the transfected cells were treated with Cell dissociation solution and used as the target cells for CTL activity assay.
Cytotoxic activity was evaluated by a four-hour ^51Cr release assay. […] After culturing, 100 micro L of the supernatant was collected from each well, and measured the radioactivity using a gamma counter. Spontaneous release was the radioactivity from the target cells with medium in the absence of effector cells, and maximum release was the radioactivity from the target cells with 1 M HCl.
The Percentage of specific cytotoxicity was determined by calculating as following formula: % Specific lysis=[(experimental release−spontaneous release)/(maximum release−spontaneous release)]×100. […]

Sequence: VLNLYLLGV [SEQ ID NO: 117, VLNLYLLGV]
- Cytotoxic activity against Caki-1 (Cr-release assay) (Caki-1 cancer cell line): remarkably high cytotoxic effect; also recorded: very potent cytotoxic activity
- Cytotoxic activity against A498 (Cr-release assay) (A498 cancer cell line): did not demonstrate the cytotoxic activity
- Cytotoxic activity against 293T transfected with both HIG2 gene and HLA-A02 (Cr-release assay) [1]: very potent cytotoxic activity
- Cytotoxic activity against 293T transfected only HIG2 or only HLA-A02 (Cr-release assay) ([1]; control transfectants): did not demonstrate the cytotoxic activity
